Source: the NIST ThermoML archive (doi:10.1016/j.jct.2009.01.012)
Numbers after ± are expanded uncertainties.

What was measured:
[1] = 101.33 kPa, Liquid, Vibrating tube method
[2] = refractive index (Na D-line) (dimensionless); conditions: 101.33 kPa, Liquid, Standard Abbe refractometry

SMILES	mass density ([1]; 313.15 K) [kg/m3]	mass density ([1]; 333.15 K) [kg/m3]	refractive index ([2]; 313.15 K)	refractive index ([2]; 333.15 K)	mass density ([1]; 293.15 K) [kg/m3]	mass density ([1]; 298.15 K) [kg/m3]	refractive index ([2]; 293.15 K)	refractive index ([2]; 298.15 K)
CCCCCCCCCCCCCCn1cc[n+](C)c1.O=S(=O)([N-]S(=O)(=O)C(F)(F)F)C(F)(F)F	1200.6 ± 2	1184 ± 2	1.43456 ± 0.00076	1.42854 ± 0.00076				
CCCCCCn1cc[n+](C)c1.F[P-](F)(F)(F)(F)F [1-hexyl-3-methylimidazolium hexafluorophosphate]	1280.4 ± 2	1264.9 ± 2	1.41346 ± 0.00073	1.40844 ± 0.00074	1296.4 ± 2	1292.4 ± 2	1.41849 ± 0.0008	1.41648 ± 0.00073
CCCCn1cc[n+](C)c1.F[B-](F)(F)F [1-butyl-3-methylimidazolium tetrafluoroborate]	1188.7 ± 2	1174.6 ± 2	1.41748 ± 0.00074	1.41246 ± 0.00074	1202.9 ± 2	1199.4 ± 2	1.42251 ± 0.00072	1.4215 ± 0.00074
CCCCCCCCCCCCCC[P+](CCCCCC)(CCCCCC)CCCCCC.O=S(=O)([O-])C(F)(F)F	972.5 ± 2	959.6 ± 2	1.45365 ± 0.00076	1.44662 ± 0.00078	985.6 ± 2	982.3 ± 2	1.45967 ± 0.0008	1.45766 ± 0.00075
CCCCCC[n+]1ccn(C)c1.O=S(=O)([N-]S(=O)(=O)C(F)(F)F)C(F)(F)F	1357.2 ± 2.1	1339.1 ± 2.1	1.42552 ± 0.00074	1.4205 ± 0.00074	1375.5 ± 2.1	1371 ± 2.1	1.43155 ± 0.0008	1.42954 ± 0.00075
CCCCCCCC[n+]1ccn(C)c1.F[P-](F)(F)(F)(F)F [1-octyl-3-methylimidazolium hexafluorophosphate]	1222.4 ± 2	1207.5 ± 2	1.41949 ± 0.00075	1.41347 ± 0.00076	1237.8 ± 2	1234 ± 2	1.42452 ± 0.00072	1.42351 ± 0.00074
CCCCn1cc[n+](C)c1.F[P-](F)(F)(F)(F)F [1-butyl-3-methylimidazolium hexafluorophosphate]	1351.3 ± 2.1	1334.9 ± 2.1	1.40543 ± 0.00073	1.4004 ± 0.00074	1367.9 ± 2.1	1363.7 ± 2.1	1.41045 ± 0.0008	1.40844 ± 0.00073
CCn1cc[n+](C)c1.O=S(=O)([N-]S(=O)(=O)C(F)(F)F)C(F)(F)F	1499.6 ± 2.1	1479.7 ± 2.1	1.41849 ± 0.00074	1.41346 ± 0.00074	1519.7 ± 2.1	1514.7 ± 2.1	1.42351 ± 0.00072	1.42251 ± 0.00074
CCCC[n+]1ccn(C)c1.O=S(=O)([N-]S(=O)(=O)C(F)(F)F)C(F)(F)F	1421.6 ± 2.1	1402.6 ± 2.1	1.42251 ± 0.00075	1.41648 ± 0.00076	1440.8 ± 2.1	1436 ± 2.1	1.42853 ± 0.0008	1.42653 ± 0.00075
CC(=O)[O-].CCCCn1cc[n+](C)c1 [1-butyl-3-methylimidazolium acetate]	1044 ± 2.2	1032.2 ± 2.2	1.48879 ± 0.00083	1.48377 ± 0.00081	1056.2 ± 2.2	1053.2 ± 2.2	1.49481 ± 0.0008	1.49381 ± 0.00083
CCCCCCCCn1cc[n+](C)c1.O=S(=O)([N-]S(=O)(=O)C(F)(F)F)C(F)(F)F	1305.5 ± 2.1	1288 ± 2	1.42854 ± 0.00075	1.42251 ± 0.00076	1323.4 ± 2.1	1318.9 ± 2.1	1.43457 ± 0.0008	1.43256 ± 0.00075
CCCCCCCCCCCCCC[P+](CCCCCC)(CCCCCC)CCCCCC.O=S(=O)([N-]S(=O)(=O)C(F)(F)F)C(F)(F)F	1054.5 ± 2	1039.9 ± 2	1.44561 ± 0.00076	1.43858 ± 0.00078	1069.1 ± 2	1065.4 ± 2	1.45164 ± 0.0008	1.44963 ± 0.00075
CCCCn1cc[n+](C)c1.O=S(=O)([O-])C(F)(F)F [1-butyl-3-methylimidazolium trifluoromethanesulfonate]	1287.7 ± 2	1272.1 ± 2	1.43155 ± 0.00076	1.42552 ± 0.00076	1303.5 ± 2	1299.5 ± 2	1.43758 ± 0.00072	1.43657 ± 0.00076
CCCCCCCCCCn1cc[n+](C)c1.O=S(=O)([N-]S(=O)(=O)C(F)(F)F)C(F)(F)F	1265.3 ± 2	1248.2 ± 2	1.43055 ± 0.00076	1.42452 ± 0.00076	1282.8 ± 2	1278.3 ± 2	1.43658 ± 0.00072	1.43557 ± 0.00076
CCCCCCCCCCCCn1cc[n+](C)c1.O=S(=O)([N-]S(=O)(=O)C(F)(F)F)C(F)(F)F	1231.8 ± 2	1215.1 ± 2	1.43356 ± 0.00075	1.42754 ± 0.00076	1249 ± 2	1244.7 ± 2	1.43958 ± 0.0008	1.43758 ± 0.00075
CC(=O)[O-].CCCCCCCCCCCCCC[P+](CCCCCC)(CCCCCC)CCCCCC [trihexyl(tetradecyl)phosphonium acetate]	882.3 ± 2.1	870.4 ± 2.1	1.47674 ± 0.00084	1.47072 ± 0.00083	894.5 ± 2.1	891.3 ± 2.1	1.48377 ± 0.00087	1.48176 ± 0.00085
CCCCn1cc[n+](C)c1.COS(=O)(=O)[O-] [1-butyl-3-methylimidazolium methyl sulfate]	1201.5 ± 2	1188.4 ± 2	1.47473 ± 0.00073	1.46971 ± 0.00074	1214.7 ± 2	1211.3 ± 2	1.47876 ± 0.00072	1.47775 ± 0.00072
